Measured values as given in patent US20250127169A1, “PLANTS HAVING INCREASED TOLERANCE TO HERBICIDES” (BASF Agricultural Solutions Seed US LLC, priority 2021, published 2025).
Several values for one entry are separate records, joined by “and”; a condition that tells them apart may be missing. Equal values may be shown once.

Columns and labels:
[1] = biological target: PPO2 AMATU L397E, F420V (variant based on SEQ ID NO: 1) (Amaranthus tuberculatus, UniProt Q0NZW9, F420V/L397E); experiment: biochemical
[2] = biological target: PPO2 AMATU L397Q, F420M (variant based on SEQ ID NO: 1) (Amaranthus tuberculatus, UniProt Q0NZW9, F420M/L397Q); experiment: biochemical

Compound	IC50 [1]	IC50 [2]
COC(=O)C(OC)Oc1ccccc1Oc1cc(-n2c(=O)cc(C(F)(F)F)n(C)c2=O)c(F)cc1Br (stereo not drawn) [phenyluracil 1, methyl 2-[2-[2-bromo-4-fluoro-5-[3-methyl-2,6-dioxo-4-(trifluoromethyl)pyrimidin-1-yl]phenoxy]phenoxy]-2-methoxy-acetate]	5790 nM and 5450 nM	357 nM and 354 nM
CCOC(=O)C(OC)Oc1ccccc1Oc1cc(-n2c(=O)cc(C(F)(F)F)n(C)c2=O)c(F)cc1Br (stereo not drawn) [phenyluracil 2, ethyl 2-[2-[2-bromo-4-fluoro-5-[3-methyl-2,6-dioxo-4-(trifluoromethyl)pyrimidin-1-yl]phenoxy]phenoxy]-2-methoxy-acetate]	6790 nM	159 nM
COC(Oc1ccccc1Oc1cc(-n2c(=O)cc(C(F)(F)F)n(C)c2=O)c(F)cc1Br)C(=O)O (stereo not drawn) [phenyluracil 3, 2-[2-[2-bromo-4-fluoro-5-[3-methyl-2,6-dioxo-4-(trifluoromethyl)pyrimidin-1-yl]phenoxy]phenoxy]-2-methoxy-acetic acid]	2810 nM	143 nM
